Where two headings read alike, the source gives them in different places.
Experiments:
[1] = target: T1, HCV NS5B RdRp genotype 1b (Hepatitis C virus genotype 1b, UniProt Q9WMX2); experiment: Standard HCV NS5B RdRp enzyme assay; format: biochemical; details: HCV NS5B RdRp genotype 1b, read-out: IC50
T1 construct: The protein was expressed with an 18 amino acid C-terminal truncation to enhance the solubility; made in house; host or cells: E. coli BL21(DE3), pET21a vector
Method in brief: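 Radiometric SPA measuring 3H-UMP incorporation on polyA/biotin-oligo-dT12 (6 nM/180 nM), 0.29 μM total UTP. Enzyme: NS5B 1b lacking last 18 residues, 28 nM final, 30° C for 60 min in 20 mM Hepes pH 7.5, 2.5 mM MgCl2, 2% DMSO. IC50 from seven-point curves.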

HCV replicon cells = experiment: HCV replicon FRET / luciferase assay (96-well plates); format: cell-based; details: Hepatitis C virus, HCV replicon, read-out: EC50
Method in brief: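 Readout was NS3 protease cleavage of an EDANS/DABCYL FRET peptide (20 μM final) in lysed HCV replicon cells, or Renilla luciferase in reporter replicons. Background came from wells with the highest level of control protease inhibitor. EC50 marked the concentration giving 50% signal reduction.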

[2] = untitled table after Table 1b, values without asterisk

T1 sequence (Q9WMX2 2420-2992): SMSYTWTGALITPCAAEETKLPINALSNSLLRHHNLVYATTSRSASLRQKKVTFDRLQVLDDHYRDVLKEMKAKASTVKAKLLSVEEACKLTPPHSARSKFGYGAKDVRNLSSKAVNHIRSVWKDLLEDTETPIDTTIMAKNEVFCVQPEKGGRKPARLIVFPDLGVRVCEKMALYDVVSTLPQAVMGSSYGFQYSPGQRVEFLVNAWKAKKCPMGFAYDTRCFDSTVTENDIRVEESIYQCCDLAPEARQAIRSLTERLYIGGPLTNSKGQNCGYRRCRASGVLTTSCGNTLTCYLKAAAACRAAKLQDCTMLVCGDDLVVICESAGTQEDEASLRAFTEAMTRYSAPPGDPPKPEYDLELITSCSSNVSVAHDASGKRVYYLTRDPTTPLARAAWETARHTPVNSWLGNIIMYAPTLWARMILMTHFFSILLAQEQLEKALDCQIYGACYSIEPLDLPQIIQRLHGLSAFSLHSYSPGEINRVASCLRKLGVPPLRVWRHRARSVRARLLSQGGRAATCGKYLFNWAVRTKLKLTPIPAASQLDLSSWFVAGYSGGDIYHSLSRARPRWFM

Structure (SMILES) | IC50 ([1]; Table 1a) | EC50 (HCV replicon cells; Table 1a) | IC50 ([1]; Table 1b) | EC50 (HCV replicon cells; Table 1b) | further results
CNC(=O)c1c(-c2ccc(F)cc2)oc2ccc(-c3cc(CO)ccc3Cl)cc12 | > 10 µM | 1 to 10 µM |  |  | 
CNC(=O)c1c(-c2ccc(F)cc2)oc2ccc(-c3cc(C(=O)NC4(c5ncc(C)s5)CC4)ccc3C)cc12 [drawing 625] |  |  |  |  | IC50 ([1]; Table 1d (class symbols)): < 0.02 µM; EC50 (HCV replicon cells; 24 h, Table 1d (class symbols)): 0.001 to 0.25 µM
CNC(=O)c1c(-c2ccc(F)cc2)oc2ccc(-c3cccc(C(=O)OC(C)(C)C)c3)cc12 | 1 to 10 µM | 1 to 10 µM |  |  | 
CCCCNC(=O)c1cccc(-c2ccc3oc(-c4ccc(F)cc4)c(C(=O)NC)c3c2)c1 | < 0.25 µM | < 0.25 µM |  |  | 
CNC(=O)c1c(-c2ccc(F)cc2)oc2ccc(-c3cccc(C(=O)NC(C)(C)c4nc(C)no4)c3)cc12 |  |  | < 0.25 µM | < 0.25 µM | 
CNC(=O)c1c(-c2ccc(F)cc2)oc2ccc(-c3cc(C(=O)NC4(c5ccccn5)CC4)ccc3OCCN(C)C)cc12 |  |  | < 0.25 µM | < 0.25 µM | 
CNC(=O)c1c(-c2ccc(F)cc2)oc2ccc(-c3ccc(OC)nc3OC)cc12 | > 10 µM | > 1.23 µM |  |  | 
CCN(CC)C(=O)c1ccc(-c2ccc3oc(-c4ccc(F)cc4)c(C(=O)NC)c3c2)cc1 | 1 to 10 µM | > 10 µM |  |  | 
CNC(=O)c1c(-c2ccc(F)cc2)oc2ccc(-c3ccc(/C=C/C(=O)O)cc3)cc12 | 1 to 10 µM | 1 to 10 µM |  |  | 
CNC(=O)c1c(-c2ccc(F)cc2)oc2ccc(-c3ccc(C(=O)O)c(F)c3)cc12 | 1 to 10 µM | > 10 µM |  |  | 
CNC(=O)c1c(-c2ccc(F)cc2)oc2ccc(-c3cccc(C(=O)N[C@H]4CCC[C@H]4c4ccc(Cl)cc4)c3)cc12 [drawing 243] | > 10 µM | 1 to 10 µM |  |  | 
CNC(=O)c1c(-c2ccc(F)cc2)oc2ccc(-c3cccc(C(=O)NC(C)(C)c4cccc5ccccc45)c3)cc12 | 0.25 to 1 µM | 0.25 to 1 µM |  |  | 
CCCC#CCOc1ccc(C(=O)NCC(C)C)cc1-c1ccc2oc(-c3ccc(F)cc3)c(C(=O)NC)c2c1 |  |  | 1 to 10 µM | 1 to 10 µM | 
CNC(=O)c1c(-c2ccc(F)cc2)oc2ccc(-c3cccc(C(=O)N4CCc5ccccc54)c3)cc12 | 1 to 10 µM | 0.25 to 1 µM |  |  | 
CNC(=O)c1c(-c2ccc(F)cc2)oc2ccc(-c3cc(C(=O)NC4(c5ccccn5)CC4)c(OCc4cnccn4)cc3C)cc12 [drawing 711] |  |  |  |  | IC50 ([1]; second table titled Table 1d (numbers)): 0.0021 µM; EC50 (HCV replicon cells; 24 h, second table titled Table 1d (numbers)): 0.001 µM
C#CCOc1cc(C(=O)NCC(C)C)cc(-c2ccc3oc(-c4ccc(F)cc4)c(C(=O)NC)c3c2)c1 |  |  | 1 to 10 µM | 1 to 10 µM | 
CNC(=O)c1c(-c2ccc(F)cc2)oc2ccc(-c3cc(C(=O)NC4(c5nnc(-c6cccc(Cl)c6)[nH]5)CC4)ccc3C)cc12 |  |  | < 0.25 µM | < 0.25 µM | 
CNC(=O)c1c(-c2ccc(F)cc2)oc2ccc(-c3ccc(C(=O)OC(C)(C)C)cc3)cc12 | > 10 µM | > 10 µM |  |  | 
CNC(=O)c1c(-c2ccc(F)cc2)oc2cc([N+](=O)[O-])c(-c3cccc(C(=O)O)c3)cc12 | 1 to 10 µM | > 10 µM |  |  | 
CNC(=O)c1c(-c2ccc(F)cc2)oc2ccc(-c3cccc(C(=O)Nc4n[nH]cc4C(N)=O)c3)cc12 | 1 to 10 µM | > 10 µM |  |  | 
CNC(=O)c1c(-c2ccc(F)cc2)oc2cc([N+](=O)[O-])c(-c3cc(C(=O)NC4(c5ccccc5)CC4)ccc3F)cc12 |  |  | < 0.25 µM | < 0.25 µM | 
CNC(=O)c1c(-c2ccc(F)cc2)oc2ccc(-c3ccc(-c4ccc(C(N)=O)cc4)c(C(=O)NCC(C)C)c3)cc12 |  |  | < 0.25 µM | > 10 µM | 
CNC(=O)c1c(-c2ccc(F)cc2)oc2ccc(-c3cccc(C(=O)NC4(c5ccccn5)CC4)c3F)cc12 |  |  | < 0.25 µM | < 0.25 µM | 
CNC(=O)c1c(-c2ccc(F)cc2)oc2ccc(-c3cccc(C(=O)Nc4ccccn4)c3)cc12 | < 0.25 µM | < 0.25 µM |  |  | 
CNC(=O)c1c(-c2ccc(F)cc2)oc2ccc(-c3cc(NC(=O)OC(C)(C)C)cc(C(=O)NCC(C)C)c3)cc12 |  |  | 0.25 to 1 µM | < 0.25 µM | 
CNC(=O)c1c(-c2ccc(F)cc2)oc2ccc(-c3ccc(C(=O)N(C)Cc4cccnc4)cc3)cc12 [drawing 620] |  |  |  |  | IC50 ([1]; untitled table after Table 1b): 9.92 µM; EC50 (HCV replicon cells; [2]): 15.1 µM
CNC(=O)c1c(-c2ccc(F)cc2)oc2ccc(-c3cc(C(=O)NC4(c5ccccn5)CC4)ccc3C)cc12 [drawing 606] |  |  |  |  | IC50 ([1]; untitled table after Table 1b): 0.0086 µM; EC50 (HCV replicon cells; [2]): 0.00195 µM
CNC(=O)c1c(-c2ccc(F)cc2)oc2ccc(-c3cccc(C(=O)N[C@@H](CO)C(C)C)c3)cc12 [drawing 613] |  |  |  |  | IC50 ([1]; untitled table after Table 1b): 0.8 µM; EC50 (HCV replicon cells; [2]): 1.25 µM
CNC(=O)c1c(-c2ccc(F)cc2)oc2ccc(-c3cccc(C(=O)NCC4CCCCC4)c3)cc12 | < 0.25 µM | 0.25 to 1 µM |  |  | 

Source: US8309558B2, “Compounds for the treatment of hepatitis C” (Bristol-Myers Squibb Company, priority 2008, dated 2012)
